Here are results for 9 molecules from ChEMBL document CHEMBL1123907 (J Med Chem, 1987).

Some results are limits rather than exact numbers.

The nature of experiment [1]: Binding affinity against imipramine receptor was determined in homogenized rat cortex tissue using [3H]-imipramine as radioligand.
Experiment [2] deals with Muscarinic acetylcholine receptor. Briefly: Binding affinity against Muscarinic acetylcholine receptor was determined in homogenized rat cortex tissue using [3H]N-methylscopolamine as radioligand.

A word on the Ki: it is the equilibrium dissociation constant of an inhibitor or competing ligand from its target. As to `CN(C)CCCN1c2ccccc2NC(=O)c2ccccc21`, the Ki was determined as 4000 nM in experiment [1] and 50 nM in experiment [2]. For `CN1CCN(CC(=O)N2c3ccccc3NC(=O)c3ccccc32)CC1` the same measures were more than 100000 nM and 23 nM. Molecule `CN1CCN(CC(=O)N2c3ccccc3C(=O)Nc3cccnc32)CC1` [PIRENZEPINE] had a Ki in experiment [1] of more than 100000 nM.

Consider `CN(C)CCCN1c2ccccc2C(=O)Nc2cccnc21`, for which the Ki in experiment [1] is 15000 nM; in experiment [2], 200 nM. As for `CN(C)CCC(=O)N1c2ccccc2CCc2ccccc21`, the Ki was found to be 400 nM in experiment [1] and 240 nM in experiment [2].

On to `CN(C)CCC(=O)N1c2ccccc2C(=O)Nc2cccnc21`, for which the values for the inhibition constant (Ki) in experiment [1] and in experiment [2] were more than 100000 nM and 45 nM, respectively.

Consider `CN(C)CCCN1c2ccccc2CCc2ccccc21` [IMIPRAMINE], for which the results for the Ki in experiment [1] and in experiment [2] were 12 nM and 65 nM, respectively. Taken in the same sequence, the figures for `CN(C)CCC(=O)N1c2ccccc2NC(=O)c2ccccc21` were more than 100000 nM and 6 nM.

As to `CN1CCN(CC(=O)N2c3ccccc3CCc3ccccc32)CC1`, the Ki in experiment [1] was more than 100000 nM; in experiment [2] it was 200 nM.
